Measurements taken from ChEMBL document CHEMBL1134849, “Substituted acrylamides as factor Xa inhibitors: improving bioavailability by P1 modification” (Bioorg Med Chem Lett, 2002).
Blank lines part the entries; values can stand above or below the compound they belong to.

Legend:
[1] = Volume distribution in rats; assay type: ADME, organism-based; conditions: rat, in vivo; read-out: Vz
Coagulation factor X [2] = biological target: T1, Coagulation factor X (Homo sapiens, UniProt P00742); assay: Concentration required for inhibition of Coagulation factor X
[3] = Half life in rats in hours; assay type: ADME, organism-based; conditions: rat, in vivo
[4] = Plasma clearance in rats; assay type: ADME, organism-based; conditions: rat
[5] = Oral bioavailability in rat; assay type: ADME, organism-based; conditions: in vivo
[6] = Plasma clearance in dogs; assay type: ADME, organism-based, Canis lupus familiaris; conditions: dog
[7] = Half life in dogs in hours; assay type: ADME, organism-based, Canis lupus familiaris; conditions: dog, in vivo
[8] = Oral bioavailability in dog; assay type: ADME, organism-based, Canis lupus familiaris; conditions: in vivo
[9] = Volume distribution in dogs; assay type: ADME, organism-based, Canis lupus familiaris; conditions: dog, in vivo; read-out: Vz
Serine protease 1 = Serine protease 1 (Homo sapiens, UniProt P07477); assay: Concentration required for inhibition of trypsin
Coagulation factor X [10] = biological target: T1, Coagulation factor X; assay: Binding affinity towards Coagulation factor X
Oryctolagus cuniculus = organism: Oryctolagus cuniculus; assay: Antithrombotic activity was evaluated by using rabbit PT assay; assay type: functional
Prothrombin = Prothrombin (Homo sapiens, UniProt P00734); assay: Concentration required for inhibition of Coagulation factor II
[11] = Oral bioavailability in ratrs; assay type: ADME, organism-based; conditions: rat, in vivo

T1 sequence (P00742 41-179 limits assumed): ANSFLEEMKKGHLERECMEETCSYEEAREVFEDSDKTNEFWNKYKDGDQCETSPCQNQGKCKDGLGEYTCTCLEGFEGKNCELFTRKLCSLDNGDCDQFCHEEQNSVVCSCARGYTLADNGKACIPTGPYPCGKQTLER
T1 sequence (P00742 235-488 limits assumed): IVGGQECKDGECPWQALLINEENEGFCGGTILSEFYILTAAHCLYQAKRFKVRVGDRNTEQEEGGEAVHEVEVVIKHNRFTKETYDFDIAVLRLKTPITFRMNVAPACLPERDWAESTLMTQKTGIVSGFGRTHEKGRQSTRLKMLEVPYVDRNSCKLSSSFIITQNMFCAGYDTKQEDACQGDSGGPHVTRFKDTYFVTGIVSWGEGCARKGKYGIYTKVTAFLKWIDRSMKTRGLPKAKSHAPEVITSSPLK
Sequence of Serine protease 1 (P07477 whole entry): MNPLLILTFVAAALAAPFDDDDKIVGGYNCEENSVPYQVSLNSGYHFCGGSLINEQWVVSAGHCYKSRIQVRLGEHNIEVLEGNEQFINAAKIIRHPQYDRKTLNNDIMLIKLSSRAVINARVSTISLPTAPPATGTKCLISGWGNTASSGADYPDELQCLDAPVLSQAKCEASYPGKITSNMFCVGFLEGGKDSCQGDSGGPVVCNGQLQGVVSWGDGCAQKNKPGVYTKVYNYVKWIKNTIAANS

Structure (SMILES): C/C(=C(\F)C(=O)Nc1ccc(-c2ccccc2S(N)(=O)=O)cc1)c1cccc(NN)c1
IC50 (Coagulation factor X [2]): > 11000 nM

Structure (SMILES): C/C(=C(\F)C(=O)Nc1ccc(-c2ccnc(C(N)=O)c2)cc1)c1ccc2ccnc(N)c2c1
IC50 (Coagulation factor X [2]): 180 nM

Structure (SMILES): C/C(=C(\F)C(=O)Nc1ccc(-c2ccccc2S(N)(=O)=O)cc1Br)c1cc(Br)ccc1[N+](=O)[O-]
IC50 (Coagulation factor X [2]): 2900 nM

Structure (SMILES): C/C(=C(/F)C(=O)Nc1ccc(-c2ccccc2S(N)(=O)=O)cc1)c1ccc2ncnc(N)c2c1
IC50 (Coagulation factor X [2]): 270 nM

Structure (SMILES): C/C(=C(/F)C(=O)Nc1ccc(-c2ccccc2S(N)(=O)=O)cc1)c1ccc2ccnc(N)c2c1
IC50 (Coagulation factor X [2]): 880 nM

Structure (SMILES): C/C(=C(\F)C(=O)Nc1ccc(-c2ccccc2C#N)cc1)c1ccc2ccnc(N)c2c1
IC50 (Coagulation factor X [2]): 190 nM

Structure (SMILES): C/C(=C(\F)C(=O)Nc1ccc(-c2ccccc2S(N)(=O)=O)cc1)c1cccc(N)c1
IC50 (Coagulation factor X [2]): > 11000 nM

Structure (SMILES): C/C(=C(\F)C(=O)Nc1ccc(-c2ccccc2S(N)(=O)=O)cc1)c1cc(N)ccc1[N+](=O)[O-]
IC50 (Coagulation factor X [2]): 250 nM

Structure (SMILES): C/C(=C(\F)C(=O)Nc1ccc(-c2ccccc2S(N)(=O)=O)cc1Br)c1cc(Br)ccc1N
IC50 (Coagulation factor X [2]): > 11000 nM

Structure (SMILES): C/C(Cc1ccc(Br)cc1)=C(\F)C(=O)Nc1ccc(-c2ccccc2S(N)(=O)=O)cc1
IC50 (Coagulation factor X [2]): 1800 nM

Structure (SMILES): C/C(=C(\F)C(=O)Nc1ccc(-c2ccccc2S(N)(=O)=O)cc1)c1cc(Cl)ccc1C#N
IC50 (Coagulation factor X [2]): 9500 nM

Structure (SMILES): C/C(=C(/F)C(=O)Nc1ccc(-c2ccccc2S(N)(=O)=O)cc1)c1ccc2nc(N)nc(N)c2c1
IC50 (Coagulation factor X [2]): > 11000 nM

Structure (SMILES): COc1ccc(/C(C)=C(/F)C(=O)Nc2ccc(-c3ccccc3S(N)(=O)=O)cc2)c(C#N)c1
IC50 (Coagulation factor X [2]): 5700 nM

Structure (SMILES): C/C(=C(\F)C(=O)Nc1ccc(-c2ccccc2S(N)(=O)=O)cc1)c1cccc(C(N)=O)c1
IC50 (Coagulation factor X [2]): 920 nM

Structure (SMILES): C/C(=C(\F)C(=O)Nc1ccc(-c2ccncc2[S+](C)[O-])cc1F)c1ccc2ccnc(N)c2c1 (configuration not stated)
IC50 (Coagulation factor X [2]): 1500 nM

Now those with a lower IC50 (Coagulation factor X [2]), led by results:

Vd [1]: 7.4 L/kg | IC50 (Coagulation factor X [2]): 78 nM | half-life [3]: 1.51 h | clearance [4]: 56.4 mL/min/kg | bioavailability [5]: 1.5%
Structure (SMILES): Nc1nccc2ccc(/C=C\C(=O)Nc3ccc(-c4ccccc4S(N)(=O)=O)cc3)cc12

IC50 (Coagulation factor X [2]): 140 nM
Structure (SMILES): C/C(=C(\F)C(=O)Nc1ccc(-c2ccccc2S(N)(=O)=O)cc1F)c1cccc(C(=N)S)c1

Vd [1]: 2.7 L/kg | IC50 (Coagulation factor X [2]): 14 nM | half-life [3]: 1.64 h | clearance [4]: 19.1 mL/min/kg | bioavailability [5]: 13%
Structure (SMILES): C/C(=C(\F)C(=O)Nc1ccc(-c2ccccc2S(N)(=O)=O)cn1)c1ccc2ccnc(N)c2c1

clearance [6]: 11.4 mL/min/kg | Vd [1]: 10 L/kg | IC50 (Coagulation factor X [2]): 14 nM | half-life [7]: 7.1 h | half-life [3]: 2.38 h | bioavailability [8]: 36.7% | clearance [4]: 48.7 mL/min/kg | bioavailability [5]: 6.8% | Vd [9]: 6.8 L/kg
Structure (SMILES): C/C(=C(\F)C(=O)Nc1ccc(-c2ccccc2S(N)(=O)=O)cc1)c1ccc2ccnc(N)c2c1

clearance [6]: 10.8 mL/min/kg | IC50 (Serine protease 1): 2400 nM | Vd [1]: 0.61 L/kg | Ki (Coagulation factor X [10]): 1.3 nM | IC50 (Coagulation factor X [2]): 7 nM | half-life [7]: 6 h | half-life [3]: 1.6 h | bioavailability [8]: 33.1% | clearance [4]: 4.4 mL/min/kg | IC50 (Prothrombin): 4800 nM | bioavailability [5]: 30.1% | Vd [9]: 5.5 L/kg
Structure (SMILES): C/C(=C(\F)C(=O)Nc1ccc(-c2ccccc2S(N)(=O)=O)cc1Br)c1ccc2ccnc(N)c2c1
Activity (Oryctolagus cuniculus): 10.3 µM

IC50 (Serine protease 1): > 11000 nM | Vd [1]: 0.8 L/kg | Ki (Coagulation factor X [10]): 1.1 nM | IC50 (Coagulation factor X [2]): 11 nM | bioavailability [11]: 35.1% | half-life [3]: 1.43 h | clearance [4]: 6.7 mL/min/kg | IC50 (Prothrombin): 5400 nM
Structure (SMILES): C/C(=C(\F)C(=O)Nc1ccc(-c2ccccc2S(N)(=O)=O)cc1Cl)c1ccc2ccnc(N)c2c1
Activity (Oryctolagus cuniculus): 9.4 µM

IC50 (Coagulation factor X [2]): 7 nM
Structure (SMILES): C/C(=C(\F)C(=O)Nc1ccc(-c2ccncc2S(C)(=O)=O)cc1)c1ccc2ccnc(N)c2c1

IC50 (Serine protease 1): 9700 nM | Vd [1]: 3.7 L/kg | Ki (Coagulation factor X [10]): 1.6 nM | IC50 (Coagulation factor X [2]): 5 nM | half-life [3]: 1.7 h | clearance [4]: 25.3 mL/min/kg | IC50 (Prothrombin): 6300 nM | bioavailability [5]: 13.5%
Structure (SMILES): C/C(=C(\F)C(=O)Nc1ccc(-c2ccccc2S(N)(=O)=O)cc1F)c1ccc2ccnc(N)c2c1
Activity (Oryctolagus cuniculus): 6.3 µM
